Data published in patent US9212182B2, “Bicyclic sulfonamide compounds as sodium channel inhibitors” (AMGEN INC., priority 2013, dated 2015).

What follows are molecules tested against Nav 1.7 (Homo sapiens (Human), UniProt Q15858) (assay: in-vitro Nav 1.7 PX (IC50)). Conditions: not given.
Assay type: cell-based

Nav 1.7, sequence (Q15858 whole entry): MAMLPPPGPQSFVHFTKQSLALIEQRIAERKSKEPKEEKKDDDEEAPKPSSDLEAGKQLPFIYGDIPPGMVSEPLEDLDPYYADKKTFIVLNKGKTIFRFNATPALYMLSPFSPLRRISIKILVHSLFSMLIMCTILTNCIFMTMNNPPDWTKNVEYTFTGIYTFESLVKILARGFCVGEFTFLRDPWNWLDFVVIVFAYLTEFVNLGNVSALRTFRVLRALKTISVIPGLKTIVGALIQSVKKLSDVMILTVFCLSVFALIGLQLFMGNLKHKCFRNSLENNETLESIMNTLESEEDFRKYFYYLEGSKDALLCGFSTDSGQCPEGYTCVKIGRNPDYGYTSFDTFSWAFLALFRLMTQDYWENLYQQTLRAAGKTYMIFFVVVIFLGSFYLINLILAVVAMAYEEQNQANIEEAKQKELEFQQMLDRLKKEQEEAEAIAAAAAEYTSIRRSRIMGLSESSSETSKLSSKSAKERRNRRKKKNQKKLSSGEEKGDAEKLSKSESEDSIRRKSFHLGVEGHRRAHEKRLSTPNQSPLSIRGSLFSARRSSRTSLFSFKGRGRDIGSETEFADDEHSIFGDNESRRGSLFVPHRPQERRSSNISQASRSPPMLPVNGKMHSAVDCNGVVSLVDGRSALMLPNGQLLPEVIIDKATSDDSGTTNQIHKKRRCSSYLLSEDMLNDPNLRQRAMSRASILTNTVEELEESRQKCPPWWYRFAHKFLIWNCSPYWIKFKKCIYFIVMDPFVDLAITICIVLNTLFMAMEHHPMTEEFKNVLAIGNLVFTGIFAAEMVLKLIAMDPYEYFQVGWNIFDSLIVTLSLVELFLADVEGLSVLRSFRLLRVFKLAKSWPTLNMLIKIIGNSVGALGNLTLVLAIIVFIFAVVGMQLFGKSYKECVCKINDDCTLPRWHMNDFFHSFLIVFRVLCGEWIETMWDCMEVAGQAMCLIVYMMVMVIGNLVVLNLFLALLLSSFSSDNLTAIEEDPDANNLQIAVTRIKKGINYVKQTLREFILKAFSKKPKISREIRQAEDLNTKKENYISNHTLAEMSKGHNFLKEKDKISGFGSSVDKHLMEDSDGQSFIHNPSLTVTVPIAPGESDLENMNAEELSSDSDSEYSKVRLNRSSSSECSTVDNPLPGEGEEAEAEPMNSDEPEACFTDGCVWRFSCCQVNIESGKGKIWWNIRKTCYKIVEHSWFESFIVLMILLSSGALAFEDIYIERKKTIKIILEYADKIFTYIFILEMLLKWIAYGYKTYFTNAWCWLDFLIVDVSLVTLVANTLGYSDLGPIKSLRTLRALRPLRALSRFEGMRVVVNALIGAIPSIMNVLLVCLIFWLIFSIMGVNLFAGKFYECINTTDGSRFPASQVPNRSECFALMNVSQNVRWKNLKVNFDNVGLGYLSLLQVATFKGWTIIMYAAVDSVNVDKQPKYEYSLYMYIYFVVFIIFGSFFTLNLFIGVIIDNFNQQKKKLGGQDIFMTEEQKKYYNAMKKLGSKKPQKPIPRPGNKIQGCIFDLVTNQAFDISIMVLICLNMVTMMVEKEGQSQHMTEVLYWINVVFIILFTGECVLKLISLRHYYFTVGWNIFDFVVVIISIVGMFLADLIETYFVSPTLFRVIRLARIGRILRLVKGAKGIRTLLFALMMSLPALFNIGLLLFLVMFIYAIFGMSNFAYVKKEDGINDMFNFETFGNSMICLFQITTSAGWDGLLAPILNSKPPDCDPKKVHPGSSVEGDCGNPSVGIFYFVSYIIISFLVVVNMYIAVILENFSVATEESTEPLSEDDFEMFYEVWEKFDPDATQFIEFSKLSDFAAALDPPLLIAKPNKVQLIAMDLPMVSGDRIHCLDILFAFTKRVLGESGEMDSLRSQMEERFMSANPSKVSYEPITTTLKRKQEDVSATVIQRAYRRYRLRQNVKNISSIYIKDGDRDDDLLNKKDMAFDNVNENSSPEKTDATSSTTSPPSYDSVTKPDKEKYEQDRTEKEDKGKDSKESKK

IC50	Compound
9 nM	COc1cc(-c2ccc(Cl)c(C)c2)ccc1-n1c(=O)ccc2cc(S(=O)(=O)Nc3ccon3)ccc21 (atropisomer, axis not shown; (P)) [Example 432, (P)-1-(4′-chloro-3-methoxy-3′-methyl-4-biphenylyl)-N-3-isoxazolyl-2-oxo-1,2-dihydro-6-quinolinesulfonamide]
11 nM	COc1cc(-c2ccc(Cl)c(F)c2)ccc1-n1c(=O)ccc2cc(S(=O)(=O)Nc3ccon3)ccc21 (atropisomer, axis not shown; (P)) [Example 580, (P)-1-(4′-chloro-3′-fluoro-3-methoxy-4-biphenylyl)-N-3-isoxazolyl-2-oxo-1,2-dihydro-6-quinolinesulfonamide]
92 nM	COc1cc(-c2cccc(F)c2)c(C)cc1-n1c(=O)cc(C)c2cc(S(=O)(=O)Nc3ccon3)ccc21 (atropisomer, axis not shown; (P)) [Example 568, (P)-1-(3′-fluoro-5-methoxy-2-methyl-4-biphenylyl)-N-3-isoxazolyl-4-methyl-2-oxo-1,2-dihydro-6-quinolinesulfonamide]
110 nM	COc1cc(-c2cc(OC)c(-n3c(=O)cnc4cc(S(=O)(=O)Nc5ncccn5)ccc43)cc2F)ccc1Cl [Example 1201, 1-(4′-chloro-2-fluoro-3′,5-dimethoxy-4-biphenylyl)-2-oxo-N-2-pyrimidinyl-1,2-dihydro-6-quinoxalinesulfonamide]
136 nM	COc1nc(O[C@H](C)C(F)(F)C(F)F)c(Cl)cc1-n1c(=O)ccc2cc(S(=O)(=O)Nc3ccon3)ccc21 [Example 1212, 1-(5-chloro-2-methoxy-6-(((1R)-2,2,3,3-tetrafluoro-1-methylpropyl)oxy)-3-pyridinyl)-N-3-isoxazolyl-2-oxo-1,2-dihydro-6-quinolinesulfonamide, 1-(5-chloro-2-methoxy-6-(((1S)-2,2,3,3-tetrafluoro-1-methylpropyl)oxy)-3-pyridinyl)-N-3-isoxazolyl-2-oxo-1,2-dihydro-6-quinolinesulfonamide]
10 nM	COc1cc(-c2cccc(Cl)c2)c(C)cc1-n1c(=O)ccc2cc(S(=O)(=O)Nc3ncccn3)ccc21 (atropisomer, axis not shown; (P)) [Example 321, (P)-1-(3′-chloro-5-methoxy-2-methyl-4-biphenylyl)-2-oxo-N-2-pyrimidinyl-1,2-dihydro-6-quinolinesulfonamide]

Same assay, conditions: in-vitro Nav 1.7 PX data

IC50	Compound
21 nM	COc1nc(-c2cc(F)cc(F)c2)c(Cl)cc1-n1c(=O)ccc2cc(S(=O)(=O)Nc3ncccn3)ccc21 [Example 1080, 1-(5-chloro-6-(3,5-difluorophenyl)-2-methoxy-3-pyridinyl)-2-oxo-N-2-pyrimidinyl-1,2-dihydro-6-quinolinesulfonamide]
6 nM	COc1cc(-c2cc(C)ccc2Cl)c(F)cc1-n1c(=O)ccc2cc(S(=O)(=O)Nc3ccon3)ccc21 [Example 716, 1-(2′-chloro-2-fluoro-5-methoxy-5′-methyl-4-biphenylyl)-N-3-isoxazolyl-2-oxo-1,2-dihydro-6-quinolinesulfonamide]
12 nM	COc1cc(-c2ccc(C)cc2Cl)c(F)cc1-n1c(=O)ccc2cc(S(=O)(=O)Nc3ccon3)ccc21 [Example 725, 1-(2′-chloro-2-fluoro-5-methoxy-4′-methyl-4-biphenylyl)-N-3-isoxazolyl-2-oxo-1,2-dihydro-6-quinolinesulfonamide]
3880 nM	COc1cnc(Cl)cc1-n1c(=O)ccc2cc(S(=O)(=O)Nc3ccon3)ccc21 [Example 617, 1-(2-chloro-5-methoxy-4-pyridinyl)-N-3-isoxazolyl-2-oxo-1,2-dihydro-6-quinolinesulfonamide]
20 nM	COc1cc(C)cc(-c2ccc(-n3c(=O)ccc4cc(S(=O)(=O)Nc5ccon5)ccc43)c(OC)c2)c1 [Example 784, 1-(3,3′-dimethoxy-5′-methyl-4-biphenylyl)-N-3-isoxazolyl-2-oxo-1,2-dihydro-6-quinolinesulfonamide]
57 nM	COc1ccc(-c2ccc(Cl)cc2)cc1-n1c(=O)ccc2cc(S(=O)(=O)Nc3ccon3)ccc21 [Example 845, 1-(4′-chloro-4-methoxy-3-biphenylyl)-N-3-isoxazolyl-2-oxo-1,2-dihydro-6-quinolinesulfonamide]
48 nM	COc1ccc(C)cc1-c1cc(OC)c(-n2c(=O)ccc3cc(S(=O)(=O)Nc4ccon4)ccc32)cc1F [Example 714, 1-(2-fluoro-2′,5-dimethoxy-5′-methyl-4-biphenylyl)-N-3-isoxazolyl-2-oxo-1,2-dihydro-6-quinolinesulfonamide]
33 nM	COc1cc(-c2ccc(C(F)(F)F)cc2)c(F)cc1-n1c(=O)ccc2cc(S(=O)(=O)Nc3ncc(F)cn3)ccc21 [Example 796, 1-(2-fluoro-5-methoxy-4′-(trifluoromethyl)-4-biphenylyl)-N-(5-fluoro-2-pyrimidinyl)-2-oxo-1,2-dihydro-6-quinolinesulfonamide]
387 nM	COc1cc(C#CC(F)(F)F)c(F)cc1-n1c(=O)ccc2cc(S(=O)(=O)Nc3ccon3)ccc21 [Example 644, 1-(5-fluoro-2-methoxy-4-(3,3,3-trifluoro-1-PROPYN-1-yl)phenyl)-N-3-isoxazolyl-2-oxo-1,2-dihydro-6-quinolinesulfonamide]
253 nM	COc1cc(-c2ccc(Cl)cn2)c(F)cc1-n1c(=O)ccc2cc(S(=O)(=O)Nc3ccon3)ccc21 [Example 800, 1-(4-(5-chloro-2-pyridinyl)-5-fluoro-2-methoxyphenyl)-N-3-isoxazolyl-2-oxo-1,2-dihydro-6-quinolinesulfonamide]
8 nM	COc1cc(-c2cccc(OC(F)(F)F)c2)c(F)cc1-n1c(=O)ccc2cc(S(=O)(=O)Nc3ccon3)ccc21 [Example 728, 1-(2-fluoro-5-methoxy-3′-(trifluoromethoxy)-4-biphenylyl)-N-3-isoxazolyl-2-oxo-1,2-dihydro-6-quinolinesulfonamide]
1060 nM	COc1nc(-c2cc(F)cc(F)c2)c(Cl)cc1-n1c(=O)ccc2cc(S(=O)(=O)Nc3ccon3)ccc21 (atropisomer, axis not shown; (M)) [Example 666, (M)-1-(5-chloro-6-(3,5-difluorophenyl)-2-methoxy-3-pyridinyl)-N-3-isoxazolyl-2-oxo-1,2-dihydro-6-quinolinesulfonamide]
10 nM	COc1cc(-c2cccc(OC(F)(F)F)c2)ccc1-n1c(=O)ccc2cc(S(=O)(=O)Nc3ccon3)ccc21 [Example 781, N-3-isoxazolyl-1-(3-methoxy-3′-(trifluoromethoxy)-4-biphenylyl)-2-oxo-1,2-dihydro-6-quinolinesulfonamide]
122 nM	COc1cc(-c2ccc3c(c2)OCC3)ccc1-n1c(=O)ccc2cc(S(=O)(=O)Nc3ccon3)ccc21 [Example 809, 1-(4-(2,3-dihydro-1-benzofuran-6-yl)-2-methoxyphenyl)-N-3-isoxazolyl-2-oxo-1,2-dihydro-6-quinolinesulfonamide]
27 nM	COc1cc(Cl)ccc1-c1ccc(-n2c(=O)ccc3cc(S(=O)(=O)Nc4ccon4)ccc32)c(OC)c1 [Example 816, 1-(4′-chloro-2′,3-dimethoxy-4-biphenylyl)-N-3-isoxazolyl-2-oxo-1,2-dihydro-6-quinolinesulfonamide]
78 nM	COc1cc(-c2ccc(Cl)c(C)c2)c(F)cc1-n1c(=O)ccc2cc(S(=O)(=O)Nc3cscn3)ccc21 [Example 932, 1-(4′-chloro-2-fluoro-5-methoxy-3′-methyl-4-biphenylyl)-2-oxo-N-1,3-thiazol-4-yl-1,2-dihydro-6-quinolinesulfonamide]

Same assay, conditions: in-vitro Nav 1.7 PX data (PatchXpress)

IC50	Compound
75 nM	COc1cc(-c2cc(F)cc(C(F)F)c2)ccc1-n1c(=O)ccc2cc(S(=O)(=O)Nc3ccon3)ccc21 [Example 1068, 1-(3′-(difluoromethyl)-5′-fluoro-3-methoxy-4-biphenylyl)-N-3-isoxazolyl-2-oxo-1,2-dihydro-6-quinolinesulfonamide]
24 nM	COc1ccc(C)c(-c2ccc(-n3c(=O)ccc4cc(S(=O)(=O)Nc5ccon5)ccc43)c(OC)c2)c1 [Example 1037, 1-(3,5′-dimethoxy-2′-methyl-4-biphenylyl)-N-3-isoxazolyl-2-oxo-1,2-dihydro-6-quinolinesulfonamide]
38 nM	COc1cc(-c2cccc(F)c2Cl)ccc1-n1c(=O)ccc2cc(S(=O)(=O)Nc3ccon3)ccc21 [Example 1058, 1-(2′-chloro-3′-fluoro-3-methoxy-4-biphenylyl)-N-3-isoxazolyl-2-oxo-1,2-dihydro-6-quinolinesulfonamide]

Same assay, conditions: in-vitro Nav 1.7 PX data, Table 4

IC50	Compound
42 nM	COc1cc(-c2cnc(OC)c(Cl)c2)c(F)cc1-n1c(=O)ccc2cc(S(=O)(=O)Nc3ccnc(C)n3)ccc21 (atropisomer, axis not shown; (P)) [Example 1160, (P)-1-(4-(5-chloro-6-methoxy-3-pyridinyl)-5-fluoro-2-methoxyphenyl)-N-(2-methyl-4-pyrimidinyl)-2-oxo-1,2-dihydro-6-quinolinesulfonamide]

Same assay, conditions: in-vitro PatchXpress (PX)

IC50	Compound
4360 nM	COc1cc(-c2ccc(Cl)c(C)c2)ccc1-n1c(=O)ccc2cc(S(=O)(=O)Nc3cccnn3)ccc21 (atropisomer, axis not shown; (P)) [Example 371, (P)-1-(4′-chloro-3-methoxy-3′-methyl-4-biphenylyl)-2-oxo-N-3-pyridazinyl-1,2-dihydro-6-quinolinesulfonamide]
9 nM	COc1cc(-c2ccc(F)c(Cl)c2)c(F)cc1-n1c(=O)ccc2cc(S(=O)(=O)Nc3ccon3)ccc21 (atropisomer, axis not shown; (P)) [Example 365, (P)-1-(3′-chloro-2,4′-difluoro-5-methoxy-4-biphenylyl)-N-3-isoxazolyl-2-oxo-1,2-dihydro-6-quinolinesulfonamide]
59 nM	COc1nc(-c2cc(F)cc(F)c2)c(Cl)cc1-n1c(=O)ccc2cc(S(=O)(=O)Nc3ccon3)ccc21 [Example 447, 1-(5-chloro-6-(3,5-difluorophenyl)-2-methoxypyridin-3-yl)-N-(isoxazol-3-yl)-2-oxo-1,2-dihydroquinoline-6-sulfonamide]
7 nM	COc1cc(-c2ccc(Cl)c(C#N)c2)c(F)cc1-n1c(=O)ccc2cc(S(=O)(=O)Nc3ccon3)ccc21 (atropisomer, axis not shown; (P)) [Example 508, (P)-1-(4′-chloro-3′-cyano-2-fluoro-5-methoxy-4-biphenylyl)-N-3-isoxazolyl-2-oxo-1,2-dihydro-6-quinolinesulfonamide]
